The values that follow come from ChEMBL document CHEMBL1127111, “Synthesis of non reducible inhibitors for trypanothione reductase from Trypanosoma cruzi” (Bioorg Med Chem Lett, 1993).

Structures are written as SMILES. Calls of active or inactive are those of the source. The calls are words filed in the database; no cut-off is given here.

The test system of assay [1] is Glutathione reductase (Bos taurus). Put plainly: Compound was tested for inhibitory activity against glutathione reductase from bovine intestinal mucosa; NI means no inhibition.
The next assay addresses Trypanothione reductase (Trypanosoma cruzi, UniProt P28593). The assay is described as follows: Compound was tested for inhibitory activity against recombinant Trypanothione reductase from Trypanosoma cruzi.

Chain of Trypanothione reductase (P28593 whole entry): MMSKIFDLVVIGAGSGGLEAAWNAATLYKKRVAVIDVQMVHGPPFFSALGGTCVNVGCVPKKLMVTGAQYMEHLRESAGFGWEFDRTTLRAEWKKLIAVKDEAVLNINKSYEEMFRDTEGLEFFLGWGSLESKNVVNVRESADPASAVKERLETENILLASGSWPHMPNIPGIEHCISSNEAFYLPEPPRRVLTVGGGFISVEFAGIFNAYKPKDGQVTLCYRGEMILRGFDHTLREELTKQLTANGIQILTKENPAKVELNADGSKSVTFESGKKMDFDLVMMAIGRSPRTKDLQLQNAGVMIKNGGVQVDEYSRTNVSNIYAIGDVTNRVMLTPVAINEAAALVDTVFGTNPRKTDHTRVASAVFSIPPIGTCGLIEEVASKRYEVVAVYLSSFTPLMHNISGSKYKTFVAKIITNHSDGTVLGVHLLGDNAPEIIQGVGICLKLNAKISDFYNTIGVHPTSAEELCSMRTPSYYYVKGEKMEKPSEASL

`CN(C)CCCNC(=O)CNC(=O)C(CCSCC(NC(=O)OCc1ccccc1)C(=O)NCC(=O)NCCCN(C)C)NC(=O)OCc1ccccc1` (stereo unspecified): the result in assay [1] was inactive. In addition, the Ki (usually the equilibrium dissociation constant of an inhibitor or competing ligand from its target) on Trypanothione reductase is 43 µM.
The like results for `CN(C)CCCNC(=O)CNC(=O)C(CSCC(NC(=O)OCc1ccccc1)C(=O)NCC(=O)NCCCN(C)C)NC(=O)OCc1ccccc1` (stereo unspecified) were, in that order, “inactive” and 92 µM.
The like results for `CN(C)CCCNC(=O)CNC(=O)C(CSCSCC(NC(=O)OCc1ccccc1)C(=O)NCC(=O)NCCCN(C)C)NC(=O)OCc1ccccc1` (stereo unspecified) were, in that order, “inactive” and 31 µM.
